Results published in US12290519B2, “Anti-inflammatory coupling compound drug, and preparation method therefor and use thereof” (COVAL BIOPHARMA (SHANGHAI) CO., LTD., priority 2021, dated 2025).

Assay: Hydrolysis rate / drug release rate of the compounds (release of JAK inhibitor, HPLC)
Type: physicochemical
Conditions: % release of JAK inhibitor from sample in acetonitrile/water=7/3 (v/v), 37° C. constant temperature shaker, sampled days 1-4, HPLC
Protocol: Analysis Method for Hydrolysis Rate of Compounds of the Present Invention
1. Preparation of Standard Working Curve Solution
(§1) About 10 mg of JAK inhibitors (tofacitinib and baricitinib) reference substances were weighed into a 25 mL volumetric flask, acetonitrile/water=7/3 (v/v) was added to dissolve and dilute to the marked volume, serving as a stock solution. The stock solution was diluted with a suitable dilution factor to obtain linear solutions of each concentration: 0.0002 mg/mL, 0.0004 mg/mL, 0.004 mg/mL, 0.04 mg/mL, and 0.08 mg/mL.
as §1, with “(Oclacitinib, Ruxolitinib, Delgocitinib,” for “(tofacitinib”, “Upadacitinib)” for “baricitinib)”
2. Preparation of Sample Solution
About 5 mg of the sample (the compound prepared in the present invention) was weighed into a 20 mL volumetric flask, acetonitrile/water=7/3 (v/v) was added to dissolve and dilute to the marked volume, serving as a stock solution. An appropriate amount of HPLC was loaded as the 0-day sample. The test solution was sealed with a sealing film and placed in a 37° C. constant temperature shaker. The test samples were taken at the same time on days 1, 2, 3, and 4 respectively. the release amount of JAK inhibitor in the sample was calculated according to the sample weight and JAK inhibitor standard curve.
3. Calculation Formula % Release of JAK Inhibitor r=100%×((AJAK Inhibitor−b)/a)/((W/20×M2/M1) wherein • AJAK inhibitor is the peak area of JAK inhibitor in the sample chromatogram • b is the intercept of the standard curve M1 is the molecular weight of the sample a is the slope of the standard curve
W is the sample weight (mg) M2 is the molecular weight of the JAK inhibitor
4. Chromatographic Conditions

| Release Rate (%/day) | SMILES |
| --- | --- |
| 10.11 | CNS(=O)(=O)CC1CCC(N(C)c2ncnc3c2ccn3C(=O)[C@@H](C)c2ccc3cc(OC)ccc3c2)CC1 (stereo partly drawn) [Ex. 39, 1-((Trans)-4-((7-((S)-2-(6-methoxynaphthalen-2-yl)propanoyl)-7H-pyrrolo [2,3-d]pyrimidin-4-yl) (methyl)amino)cyclohexyl)-N-methyl methanesulfonamide] |
| 4.27 | CNS(=O)(=O)CC1CCC(N(C)c2ncnc3c2ccn3C(=O)c2ccccc2Nc2cccc(Cl)c2C)CC1 (stereo not drawn) [Ex. 41, 1-((Trans)-4-((7-(2-((3-chloro-2-methylphenyl)amino)benzoyl)-7H-pyrrolo [2,3-d]pyrimidin-4-yl) (methyl)amino)cyclohexyl)-N-methyl methanesulfonamide] |
| 0.36 | CCS(=O)(=O)N1CC(CC#N)(n2cc(-c3ncnc4c3ccn4C(=O)c3ccccc3Nc3cccc(C)c3C)cn2)C1 [Ex. 47, 2-(3-(4-(7-(2-((2,3-Dimethylphenyl)amino)benzoyl)-7H-pyrrolo [2,3-d]pyrimidin-4-yl)-1H-pyrazol-1-yl)-1-(ethylsulfonyl)azetidin-3-yl) acetonitrile] |
| 0.1 | CC(C(=O)OCn1ccc2c(N(C)[C@H]3CN(C(=O)CC#N)CC[C@H]3C)ncnc21)c1cccc(Oc2ccccc2)c1 (stereo partly drawn) [Ex. 52, (4-(((3R, 4R)-1-(2-cyanoacetyl)-4-methylpiperidin-3-yl) (methyl)amino)-7H-pyrrolo [2,3-d]pyrimidin-7-yl) methyl 2-(3-phenoxyphenyl) propanoate] |
| 4.93 | CC(C(=O)n1ccc2c(-c3cnn([C@H](CC#N)C4CCCC4)c3)ncnc21)c1cccc(Oc2ccccc2)c1 (stereo partly drawn) [Ex. 54, (3R)-3-cyclopentyl-3-(4-(7-(2-(3-phenoxyphenyl)propanoyl)-7H-pyrrolo [2,3-d]pyrimidin-4-yl)-1H-pyrazol-1-yl) propanenitrile] |
| 0.16 | COc1ccc2c(c1)c(CC(=O)OCn1ccc3c(N(C)[C@H]4CN(C(=O)CC#N)CC[C@H]4C)ncnc31)c(C)n2C(=O)c1ccc(Cl)cc1 [Ex. 55, (4-(((3R, 4R)-1-(2-cyanoacetyl)-4-methylpiperidin-3-yl) (methyl)amino)-7H-pyrrolo [2,3-d]pyrimidin-7-yl) methyl 2-(1-(4-chlorobenzoyl)-5-methoxy-2-methyl-1H-indol-3-yl) acetate] |

More lines, now with the values behind:

| SMILES | Release Rate (%/day) |
| --- | --- |
| CNS(=O)(=O)CC1CCC(N(C)c2ncnc3c2ccn3C(=O)C(C)c2cccc(C(=O)c3ccccc3)c2)CC1 (stereo not drawn) [Ex. 38, 1-((Trans)-4-((7-(2-(3-benzoylphenyl)propanoyl)-7H-pyrrolo [2,3-d]pyrimidin-4-yl) (methyl)amino)cyclohexyl)-N-methyl methanesulfonamide] | 18.42 |
| CCS(=O)(=O)N1CC(CC#N)(n2cc(-c3ncnc4c3ccn4C(=O)c3ccccc3Nc3cccc(Cl)c3C)cn2)C1 [Ex. 40, 2-(3-(4-(7-(2-((3-Chloro-2-methylphenyl)amino)benzoyl)-7H-pyrrolo [2,3-d]pyrimidin-4-yl)-1H-pyrazol-1-yl)-1-(ethylsulfonyl)azetidin-3-yl) acetonitrile] | 0.62 |
| CNS(=O)(=O)C[C@H]1CC[C@H](N(C)c2ncnc3c2ccn3C(=O)Cc2c(C)n(C(=O)c3ccc(Cl)cc3)c3ccc(OC)cc23)CC1 [Ex. 42, 1-((Trans)-4-((7-(2-(1-(4-chlorobenzoyl)-5-methoxy-2-methyl-1H-indol-3-yl)acetyl)-7H-pyrrolo [2,3-d]pyrimidin-4-yl) (methyl)amino)cyclohexyl)-N-methylmethanesulfonamide] | 22.18 |
| CNS(=O)(=O)C[C@H]1CC[C@H](N(C)c2ncnc3c2ccn3C(=O)c2ccccc2Nc2cccc(C)c2C)CC1 [Ex. 43, 1-((trans)-4-((7-(2-((2,3-dimethylphenyl)amino)benzoyl)-7H-pyrrolo [2,3-d]pyrimidin-4-yl) (methyl)amino)cyclohexyl)-N-methyl methanesulfonamide] | 2.99 |
| CNS(=O)(=O)C[C@H]1CC[C@H](N(C)c2ncnc3c2ccn3C(=O)C(C)c2ccc(CC3CCCC3=O)cc2)CC1 (stereo partly drawn) [Ex. 44, N-methyl-1-((trans)-4-(methyl (7-(2-(4-((2-oxocyclopentyl)methyl)phenyl)propanoyl)-7H-pyrrolo [2,3-d]pyrimidin-4-yl)amino)cyclohexyl) methanesulfonamide] | 10.18 |
| CCc1cccc2c3c([nH]c12)C(CC)(CC(=O)n1ccc2c(-c4cnn([C@H](CC#N)C5CCCC5)c4)ncnc21)OCC3 (stereo partly drawn) [Ex. 45, (3R)-3-cyclopentyl-3-(4-(7-(2-(1,8-diethyl-1,3,4,9-tetrahydropyran [3,4-b]indol-1-yl)acetyl)-7H-pyrrolo [2,3-d]pyrimidin-4-yl)-1H-pyrazol-1-yl) propanenitrile] | 1.93 |
| CNS(=O)(=O)C[C@H]1CC[C@H](N(C)c2ncnc3c2ccn3C(=O)[C@@H](NC(=O)OC(C)(C)C)c2ccccc2)CC1 [Ex. 46, tert-butyl ((S)-2-(4-(methyl ((trans)-4-((N-methylsulfamoyl)methyl)cyclohexyl)amino)-7H-pyrrolo [2,3-d]pyrimidin-7-yl)-2-oxo-1-phenylethyl) carbamate] | 25.52 |
| COc1ccc2cc([C@H](C)C(=O)OCn3ccc4c(N(C)[C@H]5CN(C(=O)CC#N)CC[C@H]5C)ncnc43)ccc2c1 [Ex. 48, 4-(((3R, 4R)-1-(2-cyanoacetyl)-4-methylpiperidin-3-yl) (methyl)amino)-7H-pyrrolo [2,3-d] pyrimidin-7-yl) methyl (S)-2-(6-methoxynaphthalen-2-yl) propanoate] | 0.03 |
| CC(C(=O)OCn1ccc2c(N(C)[C@H]3CN(C(=O)CC#N)CC[C@H]3C)ncnc21)c1cccc(C(=O)c2ccccc2)c1 (stereo partly drawn) [Ex. 49, (4-(((3R, 4R)-1-(2-cyanoacetyl)-4-methylpiperidin-3-yl) (methyl)amino)-7H-pyrrolo [2,3-d]pyrimidin-7-yl) methyl 2-(3-benzoylphenyl) propanoate] | 0.11 |
| CC(C(=O)OCn1ccc2c(N(C)[C@H]3CN(C(=O)CC#N)CC[C@H]3C)ncnc21)c1ccc(-c2ccccc2)c(F)c1 (stereo partly drawn) [Ex. 50, (4-(((3R, 4R)-1-(2-cyanoacetyl)-4-methylpiperidin-3-yl) (methyl)amino)-7H-pyrrolo [2,3-d]pyrimidin-7-yl) methyl 2-(2-fluoro-[1, 1′-biphenyl]-4-yl) propanoate] | 0.05 |
| C[C@@H]1CCN(C(=O)CC#N)C[C@@H]1N(C)c1ncnc2c1ccn2COC(=O)Cc1ccccc1Nc1c(Cl)cccc1Cl [Ex. 51, (4-(((3R, 4R)-1-(2-cyanoacetyl)-4-methylpiperidin-3-yl) (methyl)amino)-7H-pyrrolo [2,3-d]pyrimidin-7-yl) methyl 2-(2-((2,6-dichlorophenyl)amino)phenyl) acetate] | 0.35 |
| CC(C(=O)OCn1ccc2c(N(C)[C@H]3CN(C(=O)CC#N)CC[C@H]3C)ncnc21)c1ccc(CC2CCCC2=O)cc1 (stereo partly drawn) [Ex. 53, (4-(((3R, 4R)-1-(2-cyanoacetyl)-4-methylpiperidin-3-yl) (methyl)amino)-7H-pyrrolo [2,3-d]pyrimidin-7-yl) methyl 2-(4-((2-oxocyclopentyl)methyl)phenyl) propanoate] | 0.06 |
